Test results reported in patent US20100130738A1 (priority 2007, published 2010).

Legend:
PDE4Bcat = target: T1, PDE4Bcat (Homo sapiens, UniProt Q07343); experiment: Phosphodiesterase inhibitory activity, recombinant PDE4Bcat, [3H]cAMP; format: biochemical; details: 30° C. 20 minutes, read-out: IC50 (μmol/L) PDE4
T1 construct: made in house; host or cells: Sf9 insect cells (baculovirus, Bac-to-Bac / Gateway)

[1] = target: T2, PDE3A catalytic domain (PDE3Acat) (Homo sapiens, UniProt Q14432); experiment: Phosphodiesterase inhibitory activity, recombinant PDE3Acat, [3H]cAMP; format: biochemical; details: 30° C. 20 minutes, read-out: IC50 (μmol/L) PDE3
T2 construct: isolate the cDNA of a PDE3A catalytic domain; made in house; host or cells: Sf9 insect cells (baculovirus, Bac-to-Bac / Gateway)
T2 sequence (Q14432 674-1093 limits assumed): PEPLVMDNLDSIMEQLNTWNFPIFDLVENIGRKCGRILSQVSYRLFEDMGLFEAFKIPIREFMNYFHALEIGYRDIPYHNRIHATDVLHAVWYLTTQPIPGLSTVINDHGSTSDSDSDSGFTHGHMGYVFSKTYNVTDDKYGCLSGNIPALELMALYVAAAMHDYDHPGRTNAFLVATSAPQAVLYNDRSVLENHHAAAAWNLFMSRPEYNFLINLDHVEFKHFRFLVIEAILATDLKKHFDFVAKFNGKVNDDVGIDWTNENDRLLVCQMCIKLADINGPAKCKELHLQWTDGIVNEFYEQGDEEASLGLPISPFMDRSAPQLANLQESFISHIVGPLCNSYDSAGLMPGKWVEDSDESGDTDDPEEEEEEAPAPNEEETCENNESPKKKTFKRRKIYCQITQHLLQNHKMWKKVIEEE

[2] = tested on: histamine-induced bronchoconstriction in guinea pigs; experiment: Histamine-induced bronchoconstriction reaction in guinea pigs; format: in vivo, guinea pig; details: Cavia porcellus, iv, 0.5 min, compound 0.3 mg/kg i.v., measured 30 seconds after administration, histamine 12.5 μg/kg i.v., read-out: Inhibition rate (histamine-induced bronchoconstriction)
Procedure: Guinea pigs were anesthetized with pentobarbital (30 mg/kg, i.p.). A cannula for intravenous administration, a cannula for collecting blood and measuring blood pressure, and a tracheal cannula were inserted into the left external jugular vein, right internal carotid artery, and trachea, respectively. The guinea pigs were maintained on artificial respiration under conditions of 60 times/min and 10 mL/kg/stroke. The overflowing air from the side branch of the tracheal cannula was measured by a bronchospasm transducer (Ugo-Basile) and recorded on a computer via Power Lab (ADInstruments Japan). The guinea pigs were immobilized with gallamine (10 mg/kg, i.v.), and histamine (12.5 μg/kg, i.v.) was administered at 10-minute intervals. After the histamine-induced bronchoconstriction became stable, the compound (0.3 mg/kg, i.v.) was administered. The histamine-induced bronchoconstriction reaction was measured 30 seconds after the compound administration to examine the bronchoconstriction inhibitory activity of the compound. The bronchoconstriction was recorded as the airflow value, and the results were represented by the ratio of the maximum value of the histamine-induced airflow 30 seconds after administration to the maximum value of the airflow before administration. Also, the test compounds dissolved in DMSO were used. Further, the indications were as follows: inhibition rate≧90% (+++), 90%>inhibition rate≧80% (++), and 80%>inhibition rate≧60% (+).

T1 sequence (Q07343 330-659 limits assumed): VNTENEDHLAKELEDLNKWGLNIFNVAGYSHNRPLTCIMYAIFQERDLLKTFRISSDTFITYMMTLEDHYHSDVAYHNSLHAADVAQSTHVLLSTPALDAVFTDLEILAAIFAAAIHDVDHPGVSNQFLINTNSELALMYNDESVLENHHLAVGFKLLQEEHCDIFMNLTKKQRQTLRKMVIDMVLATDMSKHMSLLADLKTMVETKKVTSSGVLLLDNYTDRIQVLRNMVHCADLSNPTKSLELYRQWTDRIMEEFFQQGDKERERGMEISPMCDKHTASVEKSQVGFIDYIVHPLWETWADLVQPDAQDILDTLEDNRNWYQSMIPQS

SMILES | IC50 (PDE4Bcat) [µmol/L] | IC50 [1] [µmol/L] | inhibition in vivo at 0.3 mg/kg [2] [%]
COc1ccc(C2=NN(CCCCOc3ccc(C4=NNC(=O)C4(C)C)c(F)c3F)C(=O)C2(C)C)c2cc(C(F)(F)F)oc12 [Example 217, 2-[4-[2,3-Difluoro-4-(4,4-dimethyl-5-oxo-4,5-dihydro-1H-pyrazol-3-yl)phenoxy]butyl]-5-(7-methoxy-2-trifluoromethylbenzofuran-4-yl)-4,4-dimethyl-2,4-dihydro-pyrazol-3-one] | < 0.01 | 0.1 to 1 | –
COc1ccc(C2=NN(CCCCOc3ccc(C4=NNC(=O)C4(C)C)c(F)c3F)C(=O)C2(C)C)c2sc(C(F)(F)F)nc12 [Example 230, 2-[4-[2,3-Difluoro-4-(4,4-dimethyl-5-oxo-4,5-dihydro-1H-pyrazol-3-yl)phenoxy]butyl]-5-(4-methoxy-2-trifluoromethylbenzo[d]thiazol-7-yl)-4,4-dimethyl-2,4-dihydro-pyrazol-3-one] | < 0.01 | 0.01 to 0.1 | –
COc1ccc(C2=NN(CCCCOc3ccc(C4=NNC(=O)C4(C)C)c(F)c3F)C(=O)C2(C)C)n2cc(C(F)(F)F)nc12 [Example 236, 2-[4-[2,3-Difluoro-4-(4,4-dimethyl-5-oxo-4,5-dihydro-1H-pyrazol-3-yl)phenoxy]butyl]-5-(8-methoxy-2-trifluoromethylimidazo[1,2-a]pyridin-5-yl)-4,4-dimethyl-2,4-dihydro-pyrazol-3-one] | < 0.01 | 0.01 to 0.1 | 60 to 80
COc1ccc(C2=NN(CCCCOc3ccc(C4=NNC(=O)CC4)c(F)c3F)C(=O)C2(C)C)c2cc(C(F)(F)F)oc12 [Example 216, 2-[4-[2,3-Difluoro-4-(6-oxo-1,4,5,6-tetrahydropyridazin-3-yl)phenoxy]butyl]-5-(7-methoxy-2-trifluoromethylbenzofuran-4-yl)-4,4-dimethyl-2,4-dihydro-pyrazol-3-one] | < 0.01 | < 0.01 | –
CCc1ccc2c(C3=NN(CCOc4ccc(C5=NNC(=O)CC5C)c(F)c4F)C(=O)C3(C)C)ccc(OC)c2n1 (stereo not drawn) [Example 242, 5-(2-Ethyl-8-methoxyquinolin-5-yl)-2-[4-[2,3-difluoro-4-(4-methyl-6-oxo-1,4,5,6-tetrahydropyridazin-3-yl)phenoxy]ethyl]-4,4-dimethyl-2,4-dihydro-pyrazol-3-one] | 0.01 to 0.1 | < 0.01 | –
COc1ccc(C2=NN(CCCCOc3ccc(C4=NNC(=O)CC4C)c(F)c3F)C(=O)C2(C)C)c2cc(C(F)(F)F)oc12 (stereo not drawn) [Example 218, 2-[4-[2,3-Difluoro-4-(4-methyl-6-oxo-1,4,5,6-tetrahydropyridazin-3-yl)phenoxy]butyl]-5-(7-methoxy-2-trifluoromethylbenzofuran-4-yl)-4,4-dimethyl-2,4-dihydro-pyrazol-3-one] | < 0.01 | < 0.01 | –
COc1ccc(C2=NN(CCCCOc3ccc(C4=NNC(=O)CC4)c(F)c3F)C(=O)C2(C)C)c2nc(C(F)(F)F)nn12 [Example 226, 2-[4-[2,3-Difluoro-4-(6-oxo-1,4,5,6-tetrahydropyridazin-3-yl)phenoxy]butyl]-5-(5-methoxy-2-trifluoromethyl-[1,2,4]triazolo[1,5-a]pyridin-8-yl)-4,4-dimethyl-2,4-dihydro-pyrazol-3-one] | 0.01 to 0.1 | < 0.01 | –
COc1ccc(C2=NN(CCCCOc3ccc(C4=NNC(=O)CC4C)c(F)c3F)C(=O)C2(C)C)c2nc(C(F)(F)F)nn12 (stereo not drawn) [Example 225, 2-[4-[2,3-Difluoro-4-(4-methyl-6-oxo-1,4,5,6-tetrahydropyridazin-3-yl)phenoxy]butyl]-5-(5-methoxy-2-trifluoromethyl-[1,2,4]triazolo[1,5-a]pyridin-8-yl)-4,4-dimethyl-2,4-dihydro-pyrazol-3-one] | 0.01 to 0.1 | < 0.01 | –
COc1ccc(C2=NN(CCCCOc3ccc(C4=NNC(=O)C4(C)C)c(F)c3F)C(=O)C2(C)C)c2nc(C(F)(F)F)nn12 [Example 227, 2-[4-[2,3-Difluoro-4-(4,4-dimethyl-5-oxo-4,5-dihydro-1H-pyrazol-3-yl)phenoxy]butyl]-5-(5-methoxy-2-trifluoromethyl-[1,2,4]triazolo[1,5-a]pyridin-8-yl)-4,4-dimethyl-2,4-dihydro-pyrazol-3-one] | 0.1 to 1 | 0.01 to 0.1 | –
CCc1cc2c(C3=NN(CCCCOc4ccc(C5=NNC(=O)CC5C)c(F)c4F)C(=O)C3(C)C)ccc(OC)n2c1 (stereo not drawn) [Example 231, 5-(2-Ethyl-5-methoxyindolidin-8-yl)-2-[4-[2,3-difluoro-4-(4-methyl-6-oxo-1,4,5,6-tetrahydropyridazin-3-yl)phenoxy]butyl]-4,4-dimethyl-2,4-dihydro-pyrazol-3-one] | 0.1 to 1 | < 0.01 | –
CCc1cc2c(C3=NN(CCCCOc4ccc(C5=NNC(=O)CC5)c(F)c4F)C(=O)C3(C)C)ccc(OC)n2c1 [Example 232, 5-(2-Ethyl-5-methoxyindolidin-8-yl)-2-[4-[2,3-difluoro-4-(6-oxo-1,4,5,6-tetrahydropyridazin-3-yl)phenoxy]butyl]-4,4-dimethyl-2,4-dihydro-pyrazol-3-one] | 0.01 to 0.1 | < 0.01 | –

Further lines, with some results ahead:

IC50 (PDE4Bcat) [µmol/L] | IC50 [1] [µmol/L] | SMILES | inhibition in vivo at 0.3 mg/kg [2] [%]
0.01 to 0.1 | 0.01 to 0.1 | CCc1ccc2c(C3=NN(CCCCOc4ccc(C5=NNC(=O)CC5C)cc4)C(=O)C3(C)C)ccc(OC)c2n1 (stereo not drawn) [Example 194, 5-(2-Ethyl-8-methoxyquinolin-5-yl)-2-[4-[4-(4-methyl-6-oxo-1,4,5,6-tetrahydropyridazin-3-yl)phenoxy]butyl]-4,4-dimethyl-2,4-dihydro-pyrazol-3-one] | ≥ 90
0.1 to 1 | 0.1 to 1 | CCc1ccc2c(C3=NN(CCCCOc4ccc(C5=NNC(=O)C5(C)C)cc4OC)C(=O)C3(C)C)ccc(OC)c2n1 [Example 204, 5-(2-Ethyl-8-methoxyquinolin-5-yl)-2-[4-[2-methoxy-4-(4,4-dimethyl-5-oxo-4,5-dihydro-1H-pyrazol-3-yl)phenoxy]butyl]-4,4-dimethyl-2,4-dihydro-pyrazol-3-one] | –
0.01 to 0.1 | 0.01 to 0.1 | CCc1ccc2c(C3=NN(CCCCOc4ccc(C5=NNC(=O)C5(C)C)cc4F)C(=O)C3(C)C)ccc(OC)c2n1 [Example 202, 5-(2-Ethyl-8-methoxyquinolin-5-yl)-2-[4-[2-fluoro-4-(4,4-dimethyl-5-oxo-4,5-dihydro-1H-pyrazol-3-yl)phenoxy]butyl]-4,4-dimethyl-2,4-dihydro-pyrazol-3-one] | 60 to 80
0.01 to 0.1 | < 0.01 | COc1ccc(C2=NN(CCCCOc3ccc(C4=NNC(=O)CC4C)cc3)C(=O)C2(C)C)c2cccnc12 (stereo not drawn) [Example 212, 5-(8-Methoxyquinolin-5-yl)-2-[4-[4-(4-methyl-6-oxo-1,4,5,6-tetrahydropyridazin-3-yl)phenoxy]butyl]-4,4-dimethyl-2,4-dihydro-pyrazol-3-one] | ≥ 90
0.1 to 1 | < 0.01 | CCc1ccc2c(C3=NN(CCCOc4ccc(C5=NNC(=O)CC5C)c(F)c4F)C(=O)C3(C)C)ccc(OC)c2n1 (stereo not drawn) [Example 241, 5-(2-Ethyl-8-methoxyquinolin-5-yl)-2-[4-[2,3-difluoro-4-(4-methyl-6-oxo-1,4,5,6-tetrahydropyridazin-3-yl)phenoxy]propyl]-4,4-dimethyl-2,4-dihydro-pyrazol-3-one] | ≥ 90
0.01 to 0.1 | 0.1 to 1 | CCc1ccc2c(C3=NN(CCCCOc4ccc(C5=NNC(=O)C5(C)C)cc4)C(=O)C3(C)C)ccc(OC)c2n1 [Example 201, 5-(2-Ethyl-8-methoxyquinolin-5-yl)-2-[4-[4-(4,4-dimethyl-5-oxo-4,5-dihydro-1H-pyrazol-3-yl)phenoxy]butyl]-4,4-dimethyl-2,4-dihydro-pyrazol-3-one] | –
0.1 to 1 | 0.01 to 0.1 | CCc1ccc2c(C3=NN(CCCCOc4ccc(C5=NNC(=O)CC5C)cc4OC)C(=O)C3(C)C)ccc(OC)c2n1 (stereo not drawn) [Example 208, 5-(2-Ethyl-8-methoxyquinolin-5-yl)-2-[4-[2-methoxy-4-(4-methyl-6-oxo-1,4,5,6-tetrahydropyridazin-3-yl)phenoxy]butyl]-4,4-dimethyl-2,4-dihydro-pyrazol-3-one] | –
0.1 to 1 | 0.01 to 0.1 | CCc1cc2c(C3=NN(CCCCOc4ccc(C5=NNC(=O)C5(C)C)c(F)c4F)C(=O)C3(C)C)ccc(OC)n2c1 [Example 233, 5-(2-Ethyl-5-methoxyindolidin-8-yl)-2-[4-[2,3-difluoro-4-(4,4-dimethyl-5-oxo-4,5-dihydro-1H-pyrazol-3-yl)phenoxy]butyl]-4,4-dimethyl-2,4-dihydro-pyrazol-3-one] | –
0.1 to 1 | < 0.01 | COc1ccc(C2=NN(CCCCOc3ccc(C4=NNC(=O)CC4C)cc3)C(=O)C2(C)C)c2ccc(C(C)C)nc12 (stereo not drawn) [Example 195, 5-(8-Methoxy-2-isopropylquinolin-5-yl)-2-[4-[4-(4-methyl-6-oxo-1,4,5,6-tetrahydropyridazin-3-yl)phenoxy]butyl]-4,4-dimethyl-2,4-dihydro-pyrazol-3-one] | –
